# Measured values published in BindingDB's records for doi:10.1021/jm0304358 (Yale University, 2004).
# Target: Cyclin-dependent kinase 2 (Homo sapiens, UniProt P24941)
# Assay: Evaluated for inhibition of human cyclin dependent kinase 2 (CDK2)
row,Structure (SMILES),IC50 [µM]
1,Cc1cc(Cl)cc2c1NC(=O)C2C=Nc1ccc(S(N)(=O)=O)cc1 (stereo not given),> 10
2,Cc1cccc2c1NC(=O)C2C=Nc1ccc(S(N)(=O)=O)cc1 (stereo not given),> 10
3,"CN(C)c1ccc2c(c1)C(C=Nc1ccc(S(N)(=O)=O)cc1)C(=O)N2 (stereo not given) [4-({[5-(Dimethylamino)-2-oxo-1,2-dihydro-3H-indol-3-ylidene]methyl}amino)benzenesulfonamide]",0.31

# Continued, values first:
row,IC50 [µM],Structure (SMILES)
1,0.0056,"O=C1Nc2ccc3ncsc3c2C1C=Nc1ccc(S(=O)(=O)NCc2ccccc2)cc1 (stereo not given) [N-Benzyl-4-{[(7-oxo-6,7-dihydro-8H-[1,3]thiazolo[5,4-e]-indol-8-ylidene)methyl]amino}benzenesulfonamide]"
2,0.0056,"CNS(=O)(=O)c1ccc(N=CC2C(=O)Nc3ccc4ncsc4c32)cc1 (stereo not given) [N-Methyl-4-{[(7-oxo-6,7-dihydro-8H-[1,3]thiazolo[5,4-e]-indol-8-ylidene)methyl]amino}benzenesulfonamide]"
